According to article PMC12040169 (PLOS Biology, 2025):

Assay: in vitro
Details: human, hela cells, % viability

Row | SMILES | viability at 28.5 h, 10 µM [%]
1 | Cc1ccc(C(=O)NCc2ccc(-c3n[nH]cc3C(=O)N(C)Cc3ccccc3)cc2)cc1 [CBK285598] | 100
2 | O=C(NCC1CCCCC1)C1(Cc2cccc(-c3cccnc3)c2)CCOCC1 [CBK285607] | 97.5
3 | COc1cccc([C@H]2CN(C(=O)c3ccccc3)[C@@H]3CCN(Cc4ccccc4F)C[C@H]23)c1 [CBK285608] | 97.6
4 | COc1cccc([C@H]2CN(C(=O)c3ccccc3)[C@@H]3CCN(Cc4cccs4)C[C@H]23)c1 [CBK285609] | 102
5 | COc1cccc([C@H]2CN(C(=O)c3ccccc3)[C@@H]3CCN(Cc4ccsc4)C[C@H]23)c1 [CBK285611] | 104
6 | O=C(c1ccccc1)N1C[C@@H](c2ccsc2)[C@@H]2CN(Cc3ccccc3F)CC[C@@H]21 [CBK285612] | 116
7 | O=C(c1ccccc1)N1C[C@@H](c2ccsc2)[C@@H]2CN(Cc3ccccc3Cl)CC[C@@H]21 [CBK285613] | 101
8 | COc1ccc(CN2CC[C@H]3[C@@H](C2)[C@H](c2ccsc2)CN3C(=O)c2ccccc2)cc1 [CBK285614] | 97.6
9 | COc1ccccc1CN1CC[C@H]2[C@@H](C1)[C@H](c1ccsc1)CN2C(=O)c1ccccc1 [CBK285617] | 96
10 | COc1cccc(C(NC(=O)c2cccc(Cn3ccnc3C)c2)c2ccccc2)c1 (centres unmarked) [CBK285620] | 111
11 | CC(=O)N1CCc2cc(NCc3nc4ccccc4n3C(C)c3ccccc3)ccc21 (centres unmarked) [CBK285621] | 81.7
12 | COCCNC(=O)c1cc(C2CN(CCc3ccccc3)CCO2)nc2ccccc12 (centres unmarked) [CBK285622] | 99.4
13 | O=C(c1ccccc1)N1C[C@H](c2ccsc2)[C@H]2CN(Cc3cccs3)CC[C@H]21 [CBK285623] | 95.8
14 | COc1cccc([C@H]2CN(C(=O)c3ccccc3)[C@@H]3CCN(Cc4ccccc4)C[C@H]23)c1 [CBK285624] | 88.2
15 | COc1cccc([C@H]2CN(C(=O)c3ccccc3)[C@@H]3CCN(Cc4cccc(F)c4)C[C@H]23)c1 [CBK285626] | 92.6
16 | Cc1cnccc1-c1c[nH]nc1-c1cccc(CNS(=O)(=O)c2ccc(F)c(F)c2)c1 [CBK285627] | 96
17 | COc1ccc2c(c1)CC(C(=O)N1CCc3sccc3C1c1cccs1)CO2 (centres unmarked) [CBK285628] | 110
18 | COc1cccc(CN2CCC(c3ncc(C(=O)Nc4ccc(F)cc4)c(C)n3)CC2)c1 [CBK285630] | 89.8
19 | COc1ccc(-c2ccccc2NC(=O)c2cc(-n3cccn3)ccc2Cl)cc1 [CBK285634] | 91.3
20 | O=C(c1ccc(F)cc1)N1C[C@@H](c2ccsc2)[C@@H]2CN(Cc3ccccc3)CC[C@@H]21 [CBK285635] | 94.7
21 | O=C(c1ccc(F)cc1)N1C[C@H](c2ccsc2)[C@H]2CN(Cc3cccs3)CC[C@H]21 [CBK285636] | 114
22 | Cc1ccc(CN2CC[C@H]3[C@@H](C2)[C@H](c2ccsc2)CN3C(=O)c2ccc(F)cc2)cc1 [CBK285637] | 98.1
23 | Cc1ccccc1CN1CC[C@H]2[C@@H](C1)[C@H](c1ccsc1)CN2C(=O)c1ccc(F)cc1 [CBK285638] | 102
24 | Cc1cccc(CN2CC[C@H]3[C@@H](C2)[C@H](c2ccsc2)CN3C(=O)c2ccc(F)cc2)c1 [CBK285639] | 94.9
25 | O=C(c1ccc(F)cc1)N1C[C@@H](c2ccsc2)[C@@H]2CN(Cc3cccc(F)c3)CC[C@@H]21 [CBK285640] | 91.2
26 | Cc1nc(C2CCN(C(=O)C3CCC3)CC2)nc2c1CCCN2CCc1ccccc1 [CBK285645] | 97.3

Row | SMILES | viability at 28.5 h, 10 µM [%]
27 | COc1ccc(C2(C(=O)NCc3ccc(-c4ccc(C(N)=O)c(C)n4)cc3)CCCC2)cc1 [CBK285647] | 96
28 | O=C(Nc1cccc(CCc2nc3ccccc3[nH]2)c1)c1ccc(Cn2cncn2)cc1 [CBK285648] | 89.1
29 | COc1ccc(-c2ccc(OC)cc2C(=O)Nc2ccc3c(c2)N(C)C(=O)CO3)cc1 [CBK285650] | 92
30 | COc1ccccc1-c1ccc(NC(=O)c2ccc3c(c2)ncn3C)cc1 [CBK285652] | 103
31 | Cc1ccc(C2CCCN2C(=O)c2ccc(=O)n(CC(=O)N(C)c3ccccc3)c2)cc1C (centres unmarked) [CBK285653] | 107
32 | O=C(c1ccccc1F)N1C[C@H](c2ccsc2)[C@H]2CN(Cc3ccccc3)CC[C@H]21 [CBK285655] | 96.5
33 | O=C(c1ccccc1F)N1C[C@H](c2ccsc2)[C@H]2CN(Cc3ccccc3F)CC[C@H]21 [CBK285656] | 97.4
34 | O=C(c1ccccc1F)N1C[C@H](c2ccsc2)[C@H]2CN(Cc3cccs3)CC[C@H]21 [CBK285657] | 94.8
35 | Cc1ccc(CN2CC[C@@H]3[C@H](C2)[C@@H](c2ccsc2)CN3C(=O)c2ccccc2F)cc1 [CBK285658] | 96.5
36 | Cc1cccc(CN2CC[C@@H]3[C@H](C2)[C@@H](c2ccsc2)CN3C(=O)c2ccccc2F)c1 [CBK285659] | 109
37 | Cc1cccn2cc(C(=O)N3CC(C(=O)N4CCN(c5ccccc5)CC4)C3)nc12 [CBK285663] | 101
38 | Cn1cnc2cc(C(=O)N3CC(C(=O)N4CCN(c5ccccc5)CC4)C3)ccc21 [CBK285664] | 82.5
39 | Cc1cc(NC(=O)CN2CC(C(=O)N3CCN(c4ccccc4)CC3)C2)no1 [CBK285665] | 112
40 | Cc1nc(C)c(C(=O)N2CC(C(=O)N3CCN(c4ccccc4)CC3)C2)s1 [CBK285666] | 93.4
41 | CCc1noc(C)c1C(=O)N1CC(C(=O)N2CCN(c3ccccc3)CC2)C1 [CBK285667] | 107
42 | Cc1nc(C2CCN(Cc3cccc(F)c3)CC2)ncc1C(=O)Nc1ccc(F)cc1 [CBK285668] | 107
43 | CCn1cc(CN2CCC(c3cc(Cc4cccc(OC)c4)cc(C)n3)CC2)c(C)n1 [CBK285671] | 89.2
44 | Cn1cc(-c2ccc(C3CCCCN3Cc3ccnc4ccccc34)cn2)cn1 (centres unmarked) [CBK285672] | 93.3
45 | CC(NC(=O)Cc1c[nH]c(=O)[nH]c1=O)c1cc2cc(Cl)ccc2o1 (centres unmarked) [CBK285673] | 100
46 | O=C(Cc1c[nH]c(=O)[nH]c1=O)Nc1ncc(Cc2ccc(F)cc2)s1 [CBK285674] | 103
47 | CN(C)C(=O)C1(Cc2ccccc2-c2ccccc2)CCN(C(=O)c2cccc(F)c2)CC1 [CBK285675] | 111
48 | Cc1cc(C(=O)N2CCC(Cc3ccccc3-c3ccccc3)(C(=O)N(C)C)CC2)cs1 [CBK285676] | 116
49 | Cc1ccc(C(=O)N2CCC(Cc3ccccc3-c3ccccc3)(C(=O)N(C)C)CC2)s1 [CBK285677] | 107
50 | CCCN1CCN(C(=O)c2cnc(C)cn2)C(Cc2cccc(-c3cccs3)c2)C1=O (centres unmarked) [CBK285678] | 87.2
51 | O=C(Cc1ccc2c(c1)CCCO2)Nc1c(OCCn2cccn2)ccc2ccccc12 [CBK285679] | 96.9
52 | COCCNC(=O)c1sc2ccccc2c1C1CCN(Cc2ccc3ncccc3c2)C1 (centres unmarked) [CBK285680] | 85.2

Row | SMILES | viability at 28.5 h, 10 µM [%]
53 | COc1cc(CCc2cc(O)n3nc(C)c(-c4ccc(Cl)cc4)c3n2)on1 [CBK285681] | 91.3
54 | CN(C)C(=O)C1(Cc2ccccc2-c2cccs2)CCN(C(=O)Cc2ccccc2)CC1 [CBK285687] | 92.6
55 | O=C(NCCc1ccc(F)cc1)C1CN(C(=O)c2ccc3nsnc3c2)C1 [CBK285690] | 95.8
56 | COc1cc(CCc2cc(O)n3nc(-c4cccc(C)c4)c(C)c3n2)on1 [CBK285691] | 99.8
57 | CNC(=O)C1(Cc2ccccc2-c2cccc(F)c2)CCN(C(=O)Cc2ccccc2)CC1 [CBK285692] | 115
58 | CCCn1cnc2cc(NC(=O)C3CCN(S(=O)(=O)c4ccc(F)cc4)C3)ccc21 (centres unmarked) [CBK285704] | 85.8
59 | Cc1nnnn1-c1ccc(CC(=O)N2CCc3sccc3C2c2ccco2)cc1 (centres unmarked) [CBK285705] | 88.2
60 | O=C(c1ccc(N2CCCC2)cc1)N1CCc2sccc2C1c1ccco1 (centres unmarked) [CBK285707] | 102
61 | Cc1ccccc1-c1ccccc1CC1(C(=O)N(C)C)CCN(C(=O)CC(C)C)CC1 [CBK285714] | 93.6
62 | Cc1ccccc1-c1ccccc1CC1(C(=O)N(C)C)CCN(C(=O)C2CCCCC2)CC1 [CBK285718] | 98.2
63 | COc1ccccc1CN1CCC(Cc2ccccc2-c2ccccc2)(C(N)=O)CC1 [CBK285719] | 101
64 | Cc1ccccc1-c1ccccc1CC1(C(N)=O)CCN(C(=O)CC2CCCCC2)CC1 [CBK285723] | 103
65 | Cc1ccccc1-c1ccccc1CC1(C(N)=O)CCN(C(=O)c2cccc(F)c2)CC1 [CBK285726] | 94.2
66 | Cc1ccc(CC(=O)N2CCC(Cc3ccccc3-c3ccccc3C)(C(N)=O)CC2)cc1 [CBK285727] | 98.2
67 | Cc1cccc(CC(=O)N2CCC(Cc3ccccc3-c3ccccc3C)(C(N)=O)CC2)c1 [CBK285728] | 93.4
68 | COc1cccc(CC(=O)N2CCC(Cc3ccccc3-c3ccccc3)(C(N)=O)CC2)c1 [CBK285730] | 96.7
69 | Cc1ccccc1-c1ccccc1CC1(C(=O)N(C)C)CCN(C(=O)C2CC=CCC2)CC1 (centres unmarked) [CBK285733] | 97.2
70 | CC1CC(=O)N(c2cccc(C(=O)Nc3cccc(-c4cccc(F)c4)c3)c2)C1=O (centres unmarked) [CBK285734] | 103
71 | COc1ccccc1C(=O)N1CCC(Cc2ccccc2-c2ccccc2)(C(N)=O)CC1 [CBK285739] | 96.4
72 | Cc1ccc(CC(=O)N2CCC(Cc3ccccc3-c3ccccc3)(C(N)=O)CC2)cc1 [CBK285740] | 110
73 | COc1ccccc1C(=O)N1CCC(Cc2cccc(-c3cccs3)c2)(C(N)=O)CC1 [CBK285742] | 99.8
74 | COc1ccccc1CC(=O)N1CCC(Cc2cccc(-c3cccs3)c2)(C(N)=O)CC1 [CBK285743] | 93.3
75 | COc1ccc(CC(=O)N2CCC(Cc3cccc(-c4cccs4)c3)(C(N)=O)CC2)cc1 [CBK285744] | 93.2
76 | COc1ccc(C(NC(=O)c2ccc(Cn3cncn3)cc2)c2ccccc2)cc1 (centres unmarked) [CBK285749] | 106
77 | CC(C)NC(=O)C1(Cc2ccc(-c3ccccc3F)cc2)CCN(C(=O)C(C)C)CC1 [CBK285754] | 102
